Read-outs that look alike come from different tables or passages of the source.
Key:
[1] = unbound, Cav × fu
CRP = conditions: RA, cited from earlier work
[2] = pooled RA clinical studies, cited from earlier work
platelet counts = conditions: integrated analysis of phase 1b, 2, 3 and LTE RA studies, baricitinib 4 mg QD; cited from earlier work
[3] = integrated analysis of phase 1b, 2, 3 and LTE RA studies, baricitinib 4 mg QD; cited from earlier work
in vitro = conditions: both, human, pooled human plasma
[4] = human; baricitinib 4 mg QD; cited from earlier work
NK cell counts = conditions: RA, baricitinib 4 mg QD, cited from earlier work
[5] = biological target: recombinant human kinase domain of TYK2 (Homo sapiens, UniProt P29597); experiment: Enzymatic microfluidic kinase assay, TYK2
Sequence of recombinant human kinase domain of TYK2 (P29597 897-1176 limits assumed): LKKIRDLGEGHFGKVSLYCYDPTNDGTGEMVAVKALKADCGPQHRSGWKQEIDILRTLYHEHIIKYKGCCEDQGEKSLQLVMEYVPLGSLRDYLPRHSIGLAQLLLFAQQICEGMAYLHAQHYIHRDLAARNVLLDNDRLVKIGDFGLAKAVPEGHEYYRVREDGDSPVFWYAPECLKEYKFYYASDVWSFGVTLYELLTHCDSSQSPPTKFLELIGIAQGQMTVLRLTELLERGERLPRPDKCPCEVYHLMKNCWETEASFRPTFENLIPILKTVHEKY

| Cav,u ([1]; tofacitinib 5 mg BID) | Compound | reduction of CRP levels from baseline to week 12 (CRP; tofacitinib 5 mg BID) | Cav,u ([1]; baricitinib 4 mg QD) | reduction of CRP levels from baseline to week 12 (CRP; baricitinib 4 mg QD) | herpes zoster incidence rate ([2]; baricitinib 2 mg QD) | herpes zoster incidence rate ([2]; baricitinib 4 mg QD) | platelet counts vs baseline (platelet counts) | hemoglobin levels vs baseline [3] | fraction unbound at 6 h, 1 μmol/L (in vitro) | Cav [4] | change from baseline in NK cell counts (NK cell counts; week 12) | change from baseline in NK cell counts (NK cell counts; week 24) | IC50 [5] |
| --- | --- | --- | --- | --- | --- | --- | --- | --- | --- | --- | --- | --- | --- |
| 41.0 nM | C[C@@H]1CCN(C(=O)CC#N)C[C@@H]1N(C)c1ncnc2[nH]ccc12 [Tofacitinib] | -10.1 mg/L | – | – | – | – | – | – | – | – | – | – | – |
| – | CCS(=O)(=O)N1CC(CC#N)(n2cc(-c3ncnc4[nH]ccc34)cn2)C1 [Baricitinib] | – | 16.0 nM | approximately −10 mg/L | 2.7 events per 100 patient-years | 4.3 events per 100 patient-years | initial increase in platelet counts, which then returned toward baseline | decreased from baseline to week 20, then returned to baseline or higher | 0.59 | 27 nM | −57.0 cells/mm^3 | −53.4 cells/mm^3 | 14 nM |
